Literature values in patent US20090318556A1, “BIOMARKERS FOR DETECTING RADIATION EXPOSURE: METHODS AND USES THEREOF” (priority 2008, published 2009).

Tests used:
[1] = in vivo, iv
PPARα = target: T1, PPARα (Mus musculus, UniProt P23204); conditions: mice
T1 construct: host or cells: mice (whole animal, endogenous receptor)
T1 sequence (P23204 1-468): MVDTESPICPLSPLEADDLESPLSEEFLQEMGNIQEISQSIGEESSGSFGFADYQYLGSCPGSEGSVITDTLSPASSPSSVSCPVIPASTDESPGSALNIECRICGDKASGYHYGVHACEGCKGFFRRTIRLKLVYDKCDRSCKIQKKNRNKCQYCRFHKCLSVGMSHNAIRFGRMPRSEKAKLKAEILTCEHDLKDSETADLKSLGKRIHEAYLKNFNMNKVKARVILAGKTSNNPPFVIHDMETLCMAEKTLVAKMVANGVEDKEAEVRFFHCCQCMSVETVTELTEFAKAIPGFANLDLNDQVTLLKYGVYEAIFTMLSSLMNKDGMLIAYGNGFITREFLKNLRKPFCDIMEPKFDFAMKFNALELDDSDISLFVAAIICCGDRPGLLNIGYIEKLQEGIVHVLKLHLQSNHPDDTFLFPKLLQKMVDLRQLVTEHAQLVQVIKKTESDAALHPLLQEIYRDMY

radioactivity in urine relative to plasma [1]	urinary excretion reduced after activation of PPARα (PPARα) [fold]	Structure (SMILES)
approximately 100 times	–	Cc1cn([C@H]2C[C@H](O)[C@@H](CO)O2)c(=O)[nH]c1=O [[^3H]thymidine]
–	20	CCCCCC(=O)NCC(=O)O [N-Hexanoylglycine]
